{"source": "patent US20110263423A1", "about": "“Plant Health Composition” (BASF SE, priority 2008, published 2011)", "test_system": "Maize (Pioneer 34-N-45)", "assay": "Maize field trial, mixture with epoxiconazol, Colby synergism (Example 6)", "format": "in vivo", "conditions": "50 g a.i./ha of each compound", "procedure": "Maize was grown in 2008 in a field trial at the BASF experimental station in Dinuba, 10181 Avenue 416, Calif., U.S.A. The variety Pioneer 34-N-45 was planted at a seeding rate of 35.000 plants/ha. The trial was setup as a randomized bloc design with 5 replications, each. Plot size was 43 m^2.\nThe maize plants were either untreted, treated with epoxiconazol (A3), with compound Ia, and with a mixture comprising compound Ia and epoxiconazol. Epoxiconazol was applied as the commercial formulation OPUS™ (125 g a.i./L, SC formulation) at a dose rate of 0.4 L/ha (50 g a.i./ha). Compound Ia was used as an EC formulation (62.5 g a.i./L) with a dose rate of 0.8 L per hectar (50 g a.i./ha). Epoxiconazol was applied together with compound Ia (as a mixture) using a co-formulation of both compounds (EC formulation, 62.5 g a.i./L each) with a product rate of 0.8 L/ha. The formulation was applied in a total spray volume of 300 L/ha. Compound Ia was sprayed at growth stage 51/55 (BBCH) with a tractor mounted spray boom with VS11003 spray nozzles at 3 bar spray pressure.\nNo disease symptoms were visible at the application time and no symptoms were detected at later stages.\nAt maturity the grain was harvested and the grain yield per plot, as an indicator of plant yield, was determined (kg/plot). Finally, the grain yield per hectare was calculated (dt/ha).\nThe efficacy was calculated as % increase of the grain yield (dt/ha) by each treatment compared to the untreated control.\nThe expected efficacies of the combinations of the active compounds were estimated using Colby's formula (Colby, S. R., Calculating synergistic and antagonistic responses of herbicide combinations, Weeds, 15, pp. 20-22, 1967) and compared with the observed efficacies.\nE=x+y−x·y/100 Colby's formula: • E expected efficacy, expressed in % of the untreated control, when using the mixture of the active compounds A and B at the concentrations a and b • x efficacy, expressed in % of the untreated control, when using the active ingredient A at the concentration a • y efficacy, expressed in % of the untreated control, when using the active ingredient B at the concentration b"}
{"smiles": "Fc1ccc([C@]2(Cn3cncn3)O[C@H]2c2ccccc2Cl)cc1", "note": "(racemic) [Epoxiconazol (A3), epoxiconazole, reference compound]", "values": [{"measurement": "Observed efficacy (% increase of grain yield vs untreated control)", "result": 0.9, "unit": "%"}, {"measurement": "Grain yield", "setting": "BBCH 51/55", "result": 155.8, "unit": "dt/ha"}]}
